Source: patent US20180071317A1, “USE OF AGENTS THAT ALTER THE PERITUMORAL ENVIRONMENT FOR THE TREATMENT OF CANCER” (SERVICIO ANDALUZ DE SALUD, priority 2011, published 2018)

Key:
[1] = system: fibroblasts (PHF) co-cultured with tumor cells of human endometrial carcinoma (AN3-CA); experiment: Marker expression (IHC) in PHF co-cultured with AN3-CA tumor cells; type: cell-based; settings: co-culture with AN3-CA; SP 1 μM + antagonist 1 μM; 48 h;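 further: cultured in fresh healthy-donor blood plasma with added antibiotic-antimycotic, run in six replicates, values give percent of fibroblasts positive for each marker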
Experimental: (§1) All cultures were maintained 48 hours, following which the same cells were included in paraffin blocks for subsequent analysis of the expression of different markers by immunohistochemistry (see Example 1). […] All experiments were carried out sixfold. Analyzed markers in fibroblast cells (stromal cells) were: TGF-α, TGF-β1, TGF-β2, TGF-β3, SPARC, MMP-3, MMP-7, MMP-9, MMP-11, MMP-13 and MMP-14.

[2] = system: tumors from the tumor cell lines of Table 9; experiment: Mean tumor volume in nude mice injected subcutaneously with human tumor cells; settings: 30 mg/kg/day oral, 7 days
[3] = system: fibroblasts (PHF) co-cultured with tumor cells of lung carcinoma (A-427); experiment: Marker expression (IHC) in PHF co-cultured with A-427 tumor cells; type: cell-based, human; settings: co-culture with A-427 lung carcinoma; SP 1 μM + antagonist 1 μM; 48 h;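 further: cultures grown in human blood plasma from a healthy donor, value is the percentage of fibroblasts positive for each marker, six replicates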
Experimental: as §1

[4] = system: human primary fibroblasts (PHF); experiment: Marker expression (immunohistochemistry) in human primary fibroblasts with SP alone or with NK1 antagonists; type: cell-based; settings: SP 1 μM + antagonist 1 μM; 48 h;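 further: primary human dermal fibroblasts, immunostained with rabbit polyclonal antibodies against each marker, value is percentage of stained cells among all cells counted in 20 fields at 400× per section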
Experimental: These PHF were obtained and purified from samples obtained from the dermis of the skin of healthy volunteers as described in De Bari et al (De Bari et al. 2001). Briefly, small pieces of skin dermis were digested in a solution of hyaluronidase (Sigma-Aldrich, USA) at a concentration of 1 mg/ml for 15 minutes at 37° C. and then treated with 6 mg/ml collagenase type IV (Invitrogen) for 2 hours at 37° C. Then, the cells were washed, resuspended in DMEM culture medium with high glucose (Dulbecco's Modified Eagle's Medium, Invitrogen) supplemented with 1% antibiotic-antimycotic (Invitrogen) and 1% pyruvate Sodium (Invitrogen), and seeded in culture dishes at a concentration of 10,000 cells per square centimeter. When the cells reached confluence, adherent cells were detached using 0.5% sterile trypsin (Invitrogen) and used between passages 3 and 9. For tests shown below, the PHF were plated in 24-well plates at a concentration of 25,000 cells per well.
After 48 hours of culture, cells were harvested and paraffin cell-blocks for immunohistochemical analysis were constructed, as previously explained in Example 1.
In immunohistochemical assays the expression of the following markers were studied: TGFα (SAB4502953), TGF1 (SAB4502954), TGFβ2 (SAB4502956), TGFβ3 (SAB4502957), SPARC (HPA002989), MMP-3 (HPA007875) MMP-7 (SAB4501894), MMP-9 (SAB4501896), MMP-11 (SAB4501898), MMP-13 (SAB4501900) and MMP-14 (SAB4501901) using specific antibodies against them. All antibodies used were rabbit polyclonal antibodies obtained from Sigma-Aldrich and were used at a concentration of 1/1000. All experiments were carried out sixfold.
On each of the six sections cell counts were performed in 20 high power fields (400×) through an Olympus microscope (model CX31) to assess the immunostaining. On each of the fields total cell number and number of cells displaying immunostaining were counted, being then the percentage of cells displaying said immunostaining.

[5] = system: fibroblasts of tumors produced by tumor cell line of human melanoma (MEL HO); experiment: Marker expression (IHC) in fibroblasts of tumor or peritumoral area, mouse model, MEL HO; type: in vivo; settings: MEL HO tumors in mice, 30 mg/kg/day oral, 7 days
Experimental: In vitro tests conducted in Example 5 are now carried out in an experimental model in mice in vivo. […] Subsequently, the expression in fibroblasts tumoral and peritumoral area of molecular markers associated with progression and maintenance of tumors: TGF-α, TGF-β1, TGF-β2, TGF-β3, MMP-7, MMP-11, MMP-14 were analyzed by immunohistochemistry.
Were injected with 2×10^7 cells tumors (corresponding, in each case to each of the tumor types as specified in Table 9) in 200 of PBS subcutaneously μl. […] Mice were randomized into two groups when the tumors reached a volume of 75 mm^3 One group was treated with non-peptide receptor antagonists NK1 and the other with placebo 200μ1. […] Tumors and samples of non-neoplastic stromal areas remote from the tumor were halved, formalin fixed (4%) and then were included in paraffin blocks for analysis by immunohistochemistry.
The expression on fibroblast cells obtained in the animal model was analyzed by immunohistochemistry, of the above markers: TGF-α, TGF-β1, TGF-β2, TGF-β3, MMP-7, MMP-1 1, MMP-14MP-14. Tables 32 to 35 depict the type of label used and the average percentage of fibroblasts present in non-tumor areas, tumor and peritumoral (±SD) which were expressing the marker shown in each of the tumor types developed from of the different cell lines used. This process was realized in mice treated with non-peptide antagonists of NK1 receptor and in untreated animals (control).

[6] = system: fibroblasts (PHF) co-cultured with human melanoma tumor cells (MEL-HO1); experiment: Marker expression (IHC) in PHF co-cultured with MEL-HO1 tumor cells; type: cell-based; settings: PHF co-cultured with MEL-HO1 + SP + NK1 antagonist;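 further: values are the percentage of fibroblasts positive for each marker, with cultures grown in fresh healthy-donor blood plasma and each experiment run six times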
Experimental: as §1

[7] = system: fibroblasts (PHF) co-cultured with tumor cells in human prostate carcinoma (22Rv1); experiment: Marker expression (IHC) in PHF co-cultured with 22Rv1 tumor cells; type: cell-based; settings: co-culture with 22Rv1; SP 1 μM + antagonist 1 μM; 48 h;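 further: cultures grown on fresh plasma from a healthy donor, each experiment run sixfold, values give the percentage of fibroblasts positive for the given marker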
Experimental: as §1

SMILES: Cc1cc(F)ccc1[C@H]1CNCCN1C(=O)N(C)[C@H](C)c1cc(C(F)(F)F)cc(C(F)(F)F)c1 [Vestipitant]
- PHF cells expressing MMP-3 [1]: 0%
- PHF cells expressing MMP-7 [1]: 0%
- PHF cells expressing MMP-9 [1]: 0%
- PHF cells expressing MMP-11 [1]: 0%
- PHF cells expressing MMP-13 [1]: 0%
- PHF cells expressing MMP-14 [1]: 0%
- PHF cells expressing SPARC [1]: 0%
- PHF cells expressing TGF-α [1]: 0%
- PHF cells expressing TGF-β1 [1]: 0%
- PHF cells expressing TGF-β2 [1]: 0%
- PHF cells expressing TGF-β3 [1]: 0%
- Mean tumor volume ([2]; B lymphoblastic leukemia (peripheral human B lymphoblastoid cells) SD1): 112 ± 8
- Mean tumor volume ([2]; Carcinoma of human non-small cell lung COR-L23): 111 ± 3
- Mean tumor volume ([2]; Carcinoma of human non-small cell lung H-1963): 101 ± 6
- Mean tumor volume ([2]; Carcinoma of human non-small cell lung HCC-44): 100 ± 4
- Mean tumor volume ([2]; Carcinoma of human small cell lung H-209): 113 ± 5
- Mean tumor volume ([2]; Carcinoma of human urinary bladder 5637): 112 ± 3
- Mean tumor volume ([2]; Human B lymphoma BC-1): 101 ± 9
- Mean tumor volume ([2]; Human Burkitt lymphoma CA-46): 100 ± 19
- Mean tumor volume ([2]; Human Fibrosarcoma HT-1080): 112 ± 4
- Mean tumor volume ([2]; Human Hodgkin lymphoma KM-H2): 99 ± 8
- Mean tumor volume ([2]; Human Rhabdomyosarcoma A-204): 97 ± 9
- Mean tumor volume ([2]; Human T-cell leukemia/NK YT): 101 ± 3
- Mean tumor volume ([2]; Human T-lymphoma DERL human Hodgkin 7Linfoma KM-H2): 90 ± 9
- Mean tumor volume ([2]; Human breast adenocarcinoma humano MCF-7): 78 ± 7
- Mean tumor volume ([2]; Human breast carcinoma MDA-MB-468): 84 ± 7
- Mean tumor volume ([2]; Human breast carcinoma MT-3): 78 ± 8
- Mean tumor volume ([2]; Human choriocarcinoma AC-1M32): 88 ± 8
- Mean tumor volume ([2]; Human colon carcinoma SW-403): 78 ± 2
- Mean tumor volume ([2]; Human endometrial carcinoma AN3-CA): 89 ± 1
- Mean tumor volume ([2]; Human endometrial stromal sarcoma ESS-1): 99 ± 3
- Mean tumor volume ([2]; Human folicular thyroid carcinoma TT2609-C02): 100 ± 4
- Mean tumor volume ([2]; Human gastric adenocarcinoma 23132/87): 63 ± 8
- Mean tumor volume ([2]; Human glioma GAMG): 101 ± 4
- Mean tumor volume ([2]; Human lung carcinoma A-427): 98 ± 10
- Mean tumor volume ([2]; Human lung carcinoma DV-90): 136 ± 10
- Mean tumor volume ([2]; Human lymphoblastic leukemia T BE-13): 111 ± 4
- Mean tumor volume ([2]; Human malignant fibrous histiocytoma U-2197): 95 ± 8
- Mean tumor volume ([2]; Human melanoma MEL HO): 102 ± 4
- Mean tumor volume ([2]; Human multiple myeloma COLO-677): 101 ± 4
- Mean tumor volume ([2]; Human neuroblastoma KELLY): 121 ± 4
- Mean tumor volume ([2]; Human neuroblastoma bone marrow SKN-BE 2): 101 ± 7
- Mean tumor volume ([2]; Human osteosarcoma CAL-72): 104 ± 9
- Mean tumor volume ([2]; Human ovarian adenocarcinoma EFO-27): 63 ± 7
- Mean tumor volume ([2]; Human ovarian carcinoma COLO-704): 78 ± 8
- Mean tumor volume ([2]; Human pancretic adenocarcinoma CAPAN-1): 85 ± 8
- Mean tumor volume ([2]; Human pancretic adenocarcinoma PA-TU 8902): 91 ± 6
- Mean tumor volume ([2]; Human papillary thyroid carcinoma metastasizing B-CPAP): 102 ± 2
- Mean tumor volume ([2]; Human prostate carcinoma 22RV1): 98 ± 2
- Mean tumor volume ([2]; Human retinoblastoma WERI-Rb-1): 112 ± 8
- Mean tumor volume ([2]; Human thyroid carcinoma 8505C): 98 ± 9
- Mean tumor volume ([2]; Human uterine cervix carcinoma KB): 89 ± 1
- Mean tumor volume ([2]; Melanoma humano, metástasis en ganglio linfático COLO 858): 110 ± 4
- Mean tumor volume ([2]; Sarcoma human Edwing MHH-ES-1): 115 ± 3
- Mean tumor volume ([2]; Transitional Carcinoma of human urinary bladder RT-4): 120 ± 3
- PHF cells expressing MMP-3 [3]: 0%
- PHF cells expressing MMP-7 [3]: 0%
- PHF cells expressing MMP-9 [3]: 0%
- PHF cells expressing MMP-11 [3]: 0%
- PHF cells expressing MMP-13 [3]: 0%
- PHF cells expressing MMP-14 [3]: 0%
- PHF cells expressing SPARC [3]: 0%
- PHF cells expressing TGF-α [3]: 0%
- PHF cells expressing TGF-β1 [3]: 0%
- PHF cells expressing TGF-β2 [3]: 0%
- PHF cells expressing TGF-β3 [3]: 0%
- PHF cells expressing MMP-3 [4]: 0%
- PHF cells expressing MMP-7 [4]: 0%
- PHF cells expressing MMP-9 [4]: 0%
- PHF cells expressing MMP-11 [4]: 0%
- PHF cells expressing MMP-13 [4]: 0%
- PHF cells expressing MMP-14 [4]: 0%
- PHF cells expressing SPARC [4]: 0%
- PHF cells expressing TGFα [4]: 0%
- PHF cells expressing TGFβ 1 [4]: 0%
- PHF cells expressing TGFβ 2 [4]: 0%
- PHF cells expressing TGFβ 3 [4]: 0%
- fibroblasts expressing MMP-7 [5]: 0%
- fibroblasts expressing MMP-11 [5]: 0%
- fibroblasts expressing MMP-14 [5]: 0%
- fibroblasts expressing TGF-α [5]: 0%
- fibroblasts expressing TGF-β 1 [5]: 0%
- fibroblasts expressing TGF-β 2 [5]: 0%
- fibroblasts expressing TGF-β 3 [5]: 0%
- cells expressing MMP-3 [6]: 0%
- cells expressing MMP-7 [6]: 0%
- cells expressing MMP-9 [6]: 0%
- cells expressing MMP-11 [6]: 0%
- cells expressing MMP-13 [6]: 0%
- cells expressing MMP-14 [6]: 0%
- cells expressing SPARC [6]: 0%
- cells expressing TGF-α [6]: 0%
- cells expressing TGF-β1 [6]: 0%
- cells expressing TGF-β2 [6]: 0%
- cells expressing TGF-β3 [6]: 0%
- PHF cells expressing MMP-3 [7]: 0%
- PHF cells expressing MMP-7 [7]: 0%
- PHF cells expressing MMP-9 [7]: 0%
- PHF cells expressing MMP-11 [7]: 0%
- PHF cells expressing MMP-13 [7]: 0%
- PHF cells expressing MMP-14 [7]: 0%
- PHF cells expressing SPARC [7]: 0%
- PHF cells expressing TGF-α [7]: 0%
- PHF cells expressing TGF-β1 [7]: 0%
- PHF cells expressing TGF-β2 [7]: 0%
- PHF cells expressing TGF-β3 [7]: 0%
